Counter-ions that a name gives are not always drawn. Like-named read-outs stand apart in the source and are kept apart here.
Test system: NQO1 specific enzyme activity in BEAS-2B cells
Test: BEAS-2B NQO1 MTT assay
Assay type: cell-based
Details: BEAS-2B cells, 48 hours with compound, MTT readout, read-out: EC50 of NQO1 specific activity induction
Method in brief: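 NQO1 specific activity, an NRF2 activation marker, read kinetically as absorbance change at 570 nm for 30 min after MTT cocktail addition to crude lysates of BEAS-2B cells exposed 48 h to compound. Three-parameter fit of Delta OD/min against log concentration gives EC50; lysate portion used for Cell Titer Glo.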

Structure (SMILES) | EC50 (Homo sapiens, BEAS-2B, 48 h) | also measured
Cc1ccc(C(CC(=O)O)c2ccc3c(nnn3C)c2C)cc1Cn1ccnc1CC1CCOCC1 (centres unmarked) [Example 129, 3-(1,4-Dimethyl-1H-Benzo[d][1,2,3]triazol-5-yl)-3-(4-methyl-3-((2-((tetrahydro-2H-pyran-4-yl)methyl)-1H-imidazol-1-yl)methyl)phenyl)propanoic Acid] | 100 to 1000 nM | –
Cc1ccc([C@@H](c2ccc3c(nnn3C)c2C)C(C)(C)C(=O)O)cc1Cn1ccnc1CN1CCCCCC1 [Example 126, (S)-3-(3-((2-(Azepan-1-ylmethyl)-1H-imidazol-1-yl)methyl)-4-methylphenyl)-3-(1,4-dimethyl-1H-benzo[d][1,2,3]triazol-5-yl)-2,2-dimethylpropanoate, Sodium salt] | 1 to 10 nM | –
Cc1ccc(C(CC(=O)O)c2ccc3c(nnn3C)c2C)cc1CN1Cc2ccccc2OC2(CC2)C1 (centres unmarked) [Example 243, 3-(3-((3H-Spiro[benzo[f][1,4]oxazepine-2,1′-cyclopropan]-4(5H)-yl)methyl)-4-methylphenyl)-3-(1,4-dimethyl-1H-benzo[d][1,2,3]triazol-5-yl)propanoic Acid] | 100 to 1000 nM | –
Cc1ccc(C(CC(=O)O)c2ccc3c(nnn3C)c2C)cc1Cn1ccnc1C(C)C1CCCCC1 (centres unmarked) [Example 133, Ammonium 3-(3-((2-(1-cyclohexylethyl)-1H-imidazol-1-yl)methyl)-4-methylphenyl)-3-(1,4-dimethyl-1H-benzo[d][1,2,3]triazol-5-yl)propanoate] | 100 to 1000 nM | –
CCC1CCC(Cc2nccn2Cc2cc(C(CC(=O)O)c3ccc4c(nnn4C)c3C)ccc2C)CC1 (centres unmarked) [Example 132, 3-(1,4-Dimethyl-1H-benzo[d][1,2,3]triazol-5-yl)-3-(3-((2-((4-ethylcyclohexyl)methyl)-1H-imidazol-1-yl)methyl)-4-methylphenyl)propanoic Acid] | 1000 to 10000 nM | –
Cc1ccc(C(c2ccc3c(nnn3C)c2C)C(C)(C)C(=O)O)cc1Cn1ccnc1CN1CCCC1 (centres unmarked) [Example 124, 3-(1,4-Dimethyl-1H-benzo[d][1,2,3]triazol-5-yl)-2,2-dimethyl-3-(4-methyl-3-((2-(pyrrolidin-1-ylmethyl)-1H-imidazol-1-yl)methyl)phenyl)propanoate, Sodium salt] | 10 to 100 nM | –
CCC1CN(Cc2cc([C@H](c3ccc4c(nnn4C)c3C)C(C)C(=O)O)ccc2C)Cc2ccccc2O1 (stereo partly drawn) [Example 102, (3R)-3-(1,4-dimethyl-1H-benzo[d][1,2,3]triazol-5-yl)-3-(3-((2-ethyl-2,3-dihydrobenzo[f][1,4]oxazepin-4(5H)-yl)methyl)-4-methylphenyl)-2-methylpropanoic Acid] | < 1 nM | –
CC[C@@H]1CN(Cc2cc(C(c3ccc4c(c3)nnn4C)C(C)(C)C(=O)O)ccc2C)Cc2ccccc2O1 (stereo partly drawn) [Example 103, Ammonium 3-(3-(((R)-2-Ethyl-2,3-dihydrobenzo[f][1,4]oxazepin-4(5H)-yl)methyl)-4-methylphenyl)-2,2-dimethyl-3-(1-methyl-1H-benzo[d][1,2,3]triazol-5-yl)propanoate] | < 1 nM | –
Cc1ccc(C(c2ccc3c(nnn3C)c2C)C(C)(C)C(=O)O)cc1Cn1ccnc1CC1CCCCCC1 (centres unmarked) [Example 131, 3-(3-((2-(Cycloheptylmethyl)-1H-imidazol-1-yl)methyl)-4-methylphenyl)-3-(1,4-dimethyl-1H-benzo[d][1,2,3]triazol-5-yl)-2,2-dimethylpropanoic acid] | 100 to 1000 nM | –
CC[C@@H]1CN(Cc2cc([C@@H](c3ccc4c(nnn4C)c3C)C(C)(C)C(=O)OCOP(=O)(O)Oc3ccccc3)ccc2C)Cc2cnccc2O1 [Example 254] | – | EC50 (Homo sapiens): 1 to 10 nM
Cc1ccc([C@@H](CC(=O)O)c2ccc3c(nnn3C)c2C)cc1CN1Cc2cc(F)ccc2OC(C)(C)C1 [Example 57, (R)-3-(1,4-Dimethyl-1H-benzo[d][1,2,3]triazol-5-yl)-3-(3-((7-fluoro-2,2-dimethyl-2,3-dihydrobenzo[f][1,4]oxazepin-4(5H)-yl)methyl)-4-methylphenyl)propanoic acid, 0.7formic acid salt] | – | EC50: 10 to 100 nM
CC[C@@H]1CN(Cc2cc(C(Cc3nnn[nH]3)c3ccc4c(nnn4C)c3C)ccc2C)Cc2ccccc2O1 (stereo partly drawn) [Example 112, (2R)-4-(5-(1-(1,4-dimethyl-1H-benzo[d][1,2,3]triazol-5-yl)-2-(1H-tetrazol-5-yl)ethyl)-2-methylbenzyl)-2-ethyl-2,3,4,5-tetrahydrobenzo[f][1,4]oxazepine, Formic Acid Salt] | 100 to 1000 nM | –
CC[C@@H]1CN(Cc2cc([C@@H](c3ccc4c(nnn4CC)c3F)[C@@H](C)C(=O)O)ccc2C)Cc2ncccc2O1 [Example 191, (2R,3S)-3-(3-(((R)-2-Ethyl-2,3-dihydropyrido[2,3-f][1,4]oxazepin-4(5H)-yl)methyl)-4-methylphenyl)-3-(1-ethyl-4-fluoro-1H-benzo[d][1,2,3]triazol-5-yl)-2-methylpropanoic acid] | 1 to 10 nM | –
Cc1ccc(C(c2ccc3c(nnn3C)c2C)C(C)(C)C(=O)O)cc1Cn1ccnc1CC1CCCOCC1 (centres unmarked) [Example 245, 3-(1,4-Dimethyl-1H-benzo[d][1,2,3]triazol-5-yl)-2,2-dimethyl-3-(4-methyl-3-((2-(oxepan-4-ylmethyl)-1H-imidazol-1-yl)methyl)phenyl)propanoic Acid] | 10 to 100 nM | –
CCCn1cc(CCC(c2ccc(C)c(Cn3ccnc3CN3CCC(CC)CC3)c2)C(C)(C)C(=O)O)nn1 (single isomer, unassigned) [Example 248, 3-(3-((2-((4-ethylpiperidin-1-yl)methyl)-1H-imidazol-1-yl)methyl)-4-methylphenyl)-2,2-dimethyl-5-(1-propyl-1H-1,2,3-triazol-4-yl)pentanoic Acid] | – | EC50: 10 to 100 nM
Cc1ccc(C(CC(=O)O)c2ccc3c(nnn3C)c2C)cc1CN1Cc2ncccc2OC(C)(C)C1 (stereo in doubt) [Example 170, (S)-3-(1,4-Dimethyl-1H-benzo[d][1,2,3]triazol-5-yl)-3-(3-((2,2-dimethyl-2,3-dihydropyrido[2,3-f][1,4]oxazepin-4(5H)-yl)methyl)-4-methylphenyl)propanoic acid, 0.5 Formlc acid salt] | – | EC50: 10 to 100 nM
CCn1nnc2c(C)c([C@H](c3ccc(C)c(CN4Cc5cnccc5OC(C)(C)C4)c3)[C@@H](C)C(=O)O)cc(Cl)c21 [Example 209, (2R,3S)-3-(7-Chloro-1-ethyl-4-methyl-1H-benzo[d][1,2,3]triazol-5-yl)-3-(3-((2,2-dimethyl-2,3-dihydropyrido[3,4-f][1,4]oxazepin-4(5H)-yl)methyl)-4-methylphenyl)-2-methylpropanoic Acid] | 1 to 10 nM | –
COc1ccc2c(c1)CN(Cc1cc([C@@H](CC(=O)O)c3ccc4c(nnn4C)c3C)ccc1C)CC(C)(C)O2 [Example 166, (R)-3-(1,4-Dimethyl-1H-benzo[d][1,2,3]triazol-5-yl)-3-(3-((7-methoxy-2,2-dimethyl-2,3-dihydrobenzo[f][1,4]oxazepin-4(5H)-yl)methyl)-4-methylphenyl)propanoic acid] | 10 to 100 nM | –
CC[C@@H]1CN(Cc2cc(C(CCc3cn(CC)nn3)C(C)C(=O)O)ccc2C)Cc2ccccc2O1 (single isomer, unassigned; isomer 1) [Example 118] | – | EC50: 1000 to 10000 nM
CC[C@@H]1CN(Cc2cc([C@H](c3ccc4c(nnn4C)c3C)[C@@H](C)C(=O)O)ccc2C)Cc2ccccc2O1 [Example 40, (2R,3R)-3-(1,4-Dimethyl-1H-benzo[d][1,2,3]triazol-5-yl)-3-(3-(((R)-2-ethyl-2,3-dihydrobenzo[f][1,4]oxazepin-4(5H)-yl)methyl)-4-methylphenyl)-2-methylpropanoic Acid] | 10 to 100 nM | –
CCC1CCN(Cc2nccn2Cc2cc(C(CCc3cn(CC)nn3)C(C)C(=O)O)ccc2C)CC1 (single isomer, unassigned; isomer 1) [Example 225, 5-(1-Ethyl-1H-1,2,3-triazol-4-yl)-3-(3-((2-((4-ethylpiperidin-1-yl)methyl)-1H-imidazol-1-yl)methyl)-4-methylphenyl)-2-methylpentanoic Acid, Trifluoroacetic Acid Salt (Compound 9, Isomer 1,Scheme A)] | 10 to 100 nM | –
CCC1CN(Cc2cc(C(CC(=O)O)c3ccc4c(nnn4C)c3C)ccc2C)Cc2ccc(OC)cc2O1 (centres unmarked) [Example 84, 3-(1,4-Dimethyl-1H-benzo[d][1,2,3]triazol-5-yl)-3-(3-((2-ethyl-8-methoxy-2,3-dihdyrobenzo[f][1,4]oxazepin-4(5H)-yl)methyl)-4-methylphenyl)propanoic acid, form acid salt] | 100 to 1000 nM | –
CC[C@@H]1CN(Cc2cc([C@H](c3ccc4c(nnn4C)c3C)[C@H](C)C(=O)O)ccc2C)Cc2ccccc2O1 [Example 39, (2S,3R)-3-(1,4-Dimethyl-1H-benzo[d][1,2,3]triazol-5-yl)-3-(3-(((R)-2-ethyl-2,3-dihydrobenzo[f][1,4]oxazepin-4(5H)-yl)methyl)-4-methylphenyl)-2-methylpropanoic Acid] | 10 to 100 nM | –
Cc1ccc(C(CC(=O)O)c2ccc3c(nnn3C)c2C)cc1Cn1nc(CC2CCCCC2)nc1C (centres unmarked) [Example 137, 3-(3-((3-(Cyclohexylmethyl)-5-methyl-1H-1,2,4-triazol-1-yl)methyl)-4-methylphenyl)-3-(1,4-dimethyl-1H-benzo[d][1,2,3]triazol-5-yl)propanoic Acid] | 100 to 1000 nM | –
CC[C@@H]1CN(Cc2cc([C@H](CC(=O)O)c3ccc4c(nnn4CC)c3F)ccc2C)Cc2cccc(F)c2O1 [Example 52, (S)-3-(1-Ethyl-4-fluoro-1H-benzo[d][1,2,3]triazol-5-yl)-3-(3-(((R)-2-ethyl-9-fluoro-2,3-dihdyrobenzo[f][1,4]oxazepin-4(5H)-yl)methyl)-4-methylphenyl)propanoic acid, 0.5formic acid salt] | 1 to 10 nM | –
CCC1CN(Cc2cc(C(CC(=O)O)c3ccc4c(nnn4C)c3C)ccc2C)Cc2c(Cl)cccc2O1 (centres unmarked) [Example 88, 3-(3-((6-Chloro-2-ethyl-2,3-dihydrobenzo[f][1,4]oxazepin-4(5H)-yl)methyl)-4-methylphenyl)-3-(1,4-dimethyl-1H-benzo[d][1,2,3]triazol-5-yl)propanoic acid] | 100 to 1000 nM | –

From patent publication US10604509B2, “Nrf2 regulators” (GlaxoSmithKline Intellectual Property Development Limited, priority 2015, dated 2020)
